Test results reported in patent US20150105252A1, “SUBSTITUTED PYRAZOLES AS HERBICIDES” (E I DU PONT DE NEMOURS AND COMPANY, priority 2013, published 2015).

How the values were obtained:
pigweed = assay: Test D postemergence; type: in vivo, Amaranthus retroflexus; settings: scale 0 to 100
How it was run: (§1)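 Preemergence: seeds sown in silt loam soil and sprayed with test chemical in non-phytotoxic solvent mixture with surfactant. Postemergence: plants grown in peat/vermiculite medium, sprayed at 2–18 cm (1- to 4-leaf stage). Visual rating versus untreated controls after 14–21 days, 0 (no effect) to 100 (complete control).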

foxtail, green [1] = assay: Test D postemergence; type: in vivo, Setaria viridis; settings: scale 0 to 100
How it was run: as §1

deadnettle = assay: Test D preemergence; type: in vivo, Lamium amplexicaule; settings: for Plant response rating, Deadnettle: Preemergence, scale 0 to 100
How it was run: as §1

barley, winter [2] = assay: Test D preemergence; type: in vivo, Hordeum vulgare; settings: for Plant response rating, Barley, Winter: Preemergence, scale 0 to 100
How it was run: as §1

barley, spring [3] = assay: Test D preemergence; type: in vivo, Hordeum vulgare; settings: for Plant response rating, Barley, Spring: Preemergence, scale 0 to 100
How it was run: as §1

barley, winter [4] = assay: Test D postemergence; type: in vivo, Hordeum vulgare; settings: scale 0 to 100
How it was run: as §1

barley, spring [5] = assay: Test D postemergence; type: in vivo, Hordeum vulgare; settings: scale 0 to 100
How it was run: as §1

buckwheat, wild [6] = assay: Test D postemergence; type: in vivo, Polygonum convolvulus; settings: scale 0 to 100
How it was run: as §1

foxtail, green [7] = assay: Test D preemergence; type: in vivo, Setaria viridis; settings: for Plant response rating, Foxtail, Green: Preemergence, scale 0 to 100
How it was run: as §1

field poppy = assay: Test D preemergence; type: in vivo, Papaver rhoeas; settings: for Plant response rating, Field Poppy: Preemergence, scale 0 to 100
How it was run: as §1

windgrass = assay: Test D preemergence; type: in vivo, Apera spica-venti; settings: for Plant response rating, Windgrass: Preemergence, scale 0 to 100
How it was run: as §1

buckwheat, wild [8] = assay: Test D preemergence; type: in vivo, Polygonum convolvulus; settings: for Plant response rating, Buckwheat, Wild: Preemergence, scale 0 to 100
How it was run: as §1

mustard, wild = assay: Test D preemergence; type: in vivo, Sinapis arvensis; settings: Preemergence, scale 0 to 100
How it was run: as §1

chickweed = assay: Test D preemergence; type: in vivo, Stellaria media; settings: for Plant response rating, Chickweed: Preemergence, scale 0 to 100
How it was run: as §1

wheat, winter = assay: Test D preemergence; type: in vivo, Triticum aestivum; settings: for Plant response rating, Wheat, Winter: Preemergence, scale 0 to 100
How it was run: as §1

wheat, spring = assay: Test D preemergence; type: in vivo, Triticum aestivum; settings: for Plant response rating, Wheat, Spring: Preemergence, scale 0 to 100
How it was run: as §1

field violet = assay: Test D preemergence; type: in vivo, Viola arvensis; settings: for Plant response rating, Field Violet: Preemergence, scale 0 to 100
How it was run: as §1

blackgrass = assay: Test D postemergence; type: in vivo, Alopecurus myosuroides; settings: scale 0 to 100
How it was run: as §1

kochia = assay: Test D postemergence; type: in vivo, Kochia scoparia; settings: scale 0 to 100
How it was run: as §1

canarygrass = assay: Test D preemergence; type: in vivo, Phalaris minor; settings: for Plant response rating, Canarygrass: Preemergence, scale 0 to 100
How it was run: as §1

[9] = 16 g ai/ha, taken as preemergence

CCc1cc(C(=O)NOC(C)C)nn1Cc1cccc(OC(F)(F)F)c1 [Compound 70]
30: Foxtail, Green plant response rating (foxtail, green [1]; Postemergence, 125 g ai/ha) | Plant response rating, Deadnettle (deadnettle; 62 g ai/ha)
15: Foxtail, Green plant response rating (foxtail, green [1]; Postemergence, 31 g ai/ha) | Plant response rating, Barley, Spring (barley, spring [3]; 250 g ai/ha)
50: Plant response rating, Deadnettle (deadnettle; 125 g ai/ha) | Plant response rating, Field Violet (field violet; 125 g ai/ha) | Plant response rating, Field Violet (field violet; 250 g ai/ha)
0: Plant response rating, Foxtail, Green (foxtail, green [1]; Postemergence, 16 g ai/ha) | Foxtail, Green plant response rating (foxtail, green [1]; postemergence, 62 g ai/ha) | Plant response rating (scale 0 to 100), Deadnettle (deadnettle; [9]) | Plant response rating (scale 0 to 100), Barley, Winter (barley, winter [2]; [9]) | Plant response rating, Barley, Winter (barley, winter [2]; 31 g ai/ha) | Plant response rating, Barley, Winter (barley, winter [2]; 62 g ai/ha) | Plant response rating, Barley, Winter (barley, winter [2]; 125 g ai/ha) | Plant response rating (scale 0 to 100), Barley, Spring (barley, spring [3]; 16 g ai/ha, taken as preemergence, 0 = no effect, 100 = complete control) | Plant response rating, Barley, Spring (barley, spring [3]; 31 g ai/ha) | Plant response rating, Barley, Spring (barley, spring [3]; 62 g ai/ha) | Plant response rating, Barley, Spring (barley, spring [3]; 125 g ai/ha) | Barley, Winter plant response rating (barley, winter [4]; Postemergence, 16 g ai/ha) | Barley, Winter plant response rating (barley, winter [4]; Postemergence, 31 g ai/ha) | Barley, Spring plant response rating (barley, spring [5]; Postemergence, 16 g ai/ha) | Barley, Spring plant response rating (barley, spring [5]; Postemergence, 31 g ai/ha) | Barley, Spring plant response rating (barley, spring [5]; postemergence, 62 g ai/ha) | Plant response rating (scale 0 to 100), Foxtail, Green (foxtail, green [7]; [9]) | Plant response rating, Foxtail, Green (foxtail, green [7]; 31 g ai/ha) | Plant response rating, Foxtail, Green (foxtail, green [7]; 62 g ai/ha) | Plant response rating (scale 0 to 100), Windgrass (windgrass; [9]) | Plant response rating, Windgrass (windgrass; 31 g ai/ha) | Plant response rating, Windgrass (windgrass; 62 g ai/ha) | Plant response rating, Windgrass (windgrass; 125 g ai/ha) | Plant response rating, Windgrass (windgrass; 250 g ai/ha) | Plant response rating (scale 0 to 100), Buckwheat, Wild (buckwheat, wild [8]; [9]) | Plant response rating, Buckwheat, Wild (buckwheat, wild [8]; 31 g ai/ha) | Plant response rating, Buckwheat, Wild (buckwheat, wild [8]; 62 g ai/ha) | Plant response rating, Buckwheat, Wild (buckwheat, wild [8]; 125 g ai/ha) | Plant response rating, Mustard, Wild (mustard, wild; 31 g ai/ha) | Plant response rating (scale 0 to 100), Chickweed (chickweed; [9]) | Plant response rating, Chickweed (chickweed; 31 g ai/ha) | Plant response rating (scale 0 to 100), Wheat, Winter (wheat, winter; [9]) | Plant response rating, Wheat, Winter (wheat, winter; 31 g ai/ha) | Plant response rating, Wheat, Winter (wheat, winter; 62 g ai/ha) | Plant response rating, Wheat, Winter (wheat, winter; 125 g ai/ha) | Plant response rating (scale 0 to 100), Wheat, Spring (wheat, spring; [9]) | Plant response rating, Wheat, Spring (wheat, spring; 31 g ai/ha) | Plant response rating, Wheat, Spring (wheat, spring; 62 g ai/ha) | Plant response rating (scale 0 to 100), Field Violet (field violet; [9]) | Plant response rating, Field Violet (field violet; 31 g ai/ha) | Plant response rating, Field Violet (field violet; 62 g ai/ha) | Plant response rating, Blackgrass (blackgrass; Postemergence, 16 g ai/ha) | Blackgrass plant response rating (blackgrass; Postemergence, 31 g ai/ha) | Blackgrass plant response rating (blackgrass; Postemergence, 125 g ai/ha) | Blackgrass plant response rating (blackgrass; Postemergence, 250 g ai/ha) | Blackgrass plant response rating (blackgrass; postemergence, 62 g ai/ha) | Plant response rating (scale 0 to 100), Canarygrass (canarygrass; [9]) | Plant response rating, Canarygrass (canarygrass; 31 g ai/ha) | Plant response rating, Canarygrass (canarygrass; 62 g ai/ha)
60: Pigweed plant response rating (pigweed; Postemergence, 31 g ai/ha) | Pigweed plant response rating (pigweed; postemergence, 62 g ai/ha) | Foxtail, Green plant response rating (foxtail, green [1]; Postemergence, 250 g ai/ha)
75: Pigweed plant response rating (pigweed; Postemergence, 125 g ai/ha) | Plant response rating, Canarygrass (canarygrass; 250 g ai/ha)
85: Kochia plant response rating (kochia; Postemergence, 31 g ai/ha)
25: Plant response rating, Deadnettle (deadnettle; 31 g ai/ha)
90: Pigweed plant response rating (pigweed; Postemergence, 250 g ai/ha) | Plant response rating, Field Poppy (field poppy; 125 g ai/ha)
70: Kochia plant response rating (kochia; postemergence, 62 g ai/ha)
35: Buckwheat, Wild plant response rating (buckwheat, wild [6]; Postemergence, 250 g ai/ha)
40: Plant response rating, Pigweed (pigweed; Postemergence, 16 g ai/ha) | Plant response rating, Kochia (kochia; Postemergence, 16 g ai/ha)
10: Plant response rating, Barley, Winter (barley, winter [2]; 250 g ai/ha) | Plant response rating, Buckwheat, Wild (buckwheat, wild [6]; Postemergence, 16 g ai/ha) | Plant response rating, Chickweed (chickweed; 62 g ai/ha) | Plant response rating, Wheat, Winter (wheat, winter; 250 g ai/ha) | Plant response rating, Wheat, Spring (wheat, spring; 125 g ai/ha)
20: Buckwheat, Wild plant response rating (buckwheat, wild [6]; Postemergence, 31 g ai/ha) | Buckwheat, Wild plant response rating (buckwheat, wild [6]; Postemergence, 125 g ai/ha) | Buckwheat, Wild plant response rating (buckwheat, wild [6]; postemergence, 62 g ai/ha) | Plant response rating, Foxtail, Green (foxtail, green [7]; 125 g ai/ha) | Plant response rating (scale 0 to 100), Field Poppy (field poppy; [9]) | Plant response rating, Wheat, Spring (wheat, spring; 250 g ai/ha) | Plant response rating, Canarygrass (canarygrass; 125 g ai/ha)
5: Barley, Winter plant response rating (barley, winter [4]; Postemergence, 125 g ai/ha) | Barley, Winter plant response rating (barley, winter [4]; Postemergence, 250 g ai/ha) | Barley, Winter plant response rating (barley, winter [4]; postemergence, 62 g ai/ha) | Barley, Spring plant response rating (barley, spring [5]; Postemergence, 125 g ai/ha) | Barley, Spring plant response rating (barley, spring [5]; Postemergence, 250 g ai/ha)
98: Kochia plant response rating (kochia; Postemergence, 125 g ai/ha)
100: Plant response rating, Deadnettle (deadnettle; 250 g ai/ha) | Plant response rating, Foxtail, Green (foxtail, green [7]; 250 g ai/ha) | Plant response rating, Field Poppy (field poppy; 31 g ai/ha) | Plant response rating, Field Poppy (field poppy; 62 g ai/ha) | Plant response rating, Field Poppy (field poppy; 250 g ai/ha) | Plant response rating, Buckwheat, Wild (buckwheat, wild [8]; 250 g ai/ha) | Plant response rating, Mustard, Wild (mustard, wild; 62 g ai/ha) | Plant response rating, Mustard, Wild (mustard, wild; 125 g ai/ha) | Plant response rating, Mustard, Wild (mustard, wild; 250 g ai/ha) | Plant response rating, Chickweed (chickweed; 125 g ai/ha) | Plant response rating, Chickweed (chickweed; 250 g ai/ha)
95: Kochia plant response rating (kochia; Postemergence, 250 g ai/ha)
